Test results: US9963461B2, “Phillygenin ibuprofen ester, preparation method therefor, and application thereof” (priority 2014, dated 2018)
Like-named read-outs stand apart in the source and are kept apart here.

How the values were obtained:
[1] = system: parainfluenza virus; assay type: in vivo, Kunming mice; conditions: mouse, in vivo
[2] = system: Vero cell; assay: Cytotoxicity test on Vero cell (MTT); conditions: 72 hours

COc1ccc([C@H]2OCC3C2CO[C@H]3c2ccc(OC)c(OC(=O)C(C)c3ccc(CC(C)C)cc3)c2)cc1OC (stereo partly drawn) [Phillygenin ibuprofen ester, phillygenin ibuprofen ester]
Hemagglutination titer (InX) ([1]; 3.25 mg/kg/day): 21.55 ± 0.857
Hemagglutination titer Inhibitive rate (%) ([1]; 3.25 mg/kg/day): 34.90%
Hemagglutination titer (InX) ([1]; 13 mg/kg/day): 19.75 ± 0.902
Hemagglutination titer Inhibitive rate (%) ([1]; 13 mg/kg/day): 40.34%
Median toxic concentration (TC50) [2]: 0.485 g/L
maximal non-toxic concentration (TC0) [2]: 0.109 g/L
